Experimental findings from patent US9975854B2, “Benzomorphan analogs and use thereof” (Purdue Pharma L.P., priority 2014, dated 2018) are described below.

Like-named read-outs stand apart in the source and are kept apart here.

The experiment addresses μ-opioid receptor (Homo sapiens (Human), UniProt P35372). Kind of experiment: μ-opioid receptor [35S]GTPγS functional assay, HEK-293 or CHO cells. In kind it is biochemical. Conditions: HEK-293 or CHO cells; for EC50: read-out: GTPγS μ EC50; for Emax: relative to DAMGO. The procedure:
[^35S]GTPγS functional assays were conducted using freshly thawed μ-receptor membranes prepared in-house from a cell line expressing recombinant opioid receptor in a HEK-293, CHO or U-2 OS cell background, or purchased from a commercial source (Perkin Elmer, Shelton, Conn.; or DiscovRx, Fremont, Calif.). Assay reactions were prepared by sequentially adding the following reagents to binding buffer (100 mM NaCl, 10 mM MgCl2, 20 mM HEPES, pH 7.4) on ice (final concentrations indicated): membrane protein (0.026 mg/mL), saponin ([…]), GDP ([…]) and [^35S]GTPγS (0.20 nM; Perkin Elmer, Shelton, Conn.). The prepared membrane solution (190 μl/well) was transferred to 96-shallow well polypropylene plates containing 10 μl of 20× concentrated stock solutions of the agonist [D-Ala^2, N-methyl-Phe^4 Gly-ol^5]-enkephalin (DAMGO) prepared in dimethyl sulfoxide (DMSO). Plates were incubated for 30 min at about 25° C. with shaking. Reactions were terminated by rapid filtration onto 96-well Unifilter GF/B filter plates (Perkin Elmer, Shelton, Conn.) using a 96-well tissue harvester (Perkin Elmer, Shelton, Conn.) followed by three filtration washes with 200 μl of ice-cold wash buffer (10 mM NaH2PO4, 10 mM Na2HPO4, pH 7.4). Filter plates were subsequently dried at 50° C. for 2-3 hr. BetaScint scintillation cocktail (Perkin Elmer, Shelton, Conn.) was added (50 μl/well) and plates were counted using a Packard Top-Count for 1 min/well. Data were analyzed using the sigmoidal dose-response curve fitting functions in GraphPad PRISM v. 3.0, or an in-house function for non-linear, sigmoidal dose-response curve-fitting.
μ GTP EC50 is the concentration of a compound providing 50% of the maximal response for the compound at a μ-opioid receptor.
μ GTP Emax (%) is the maximal effect elicited by a compound relative to the effect elicited by DAMGO, a standard p agonist. Generally, the μ GTP Emax (%) value measures the efficacy of a compound to treat or prevent pain or other Conditions.
In TABLE 4, activity response of certain Compounds of the Invention to the μ- and κ-opioid receptors was determined as described above for functional assays using HEK-293 or CHO cells.

With `CN1CC[C@@]2(C)c3cc(O)ccc3C[C@@H]1[C@@H]2N(C)CC(=O)Nc1ccc(C(F)(F)F)cc1` [Compound 41, 2-(((2R,6S,11R)-8-hydroxy-3,6-dimethyl-1,2,3,4,5,6-hexahydro-2,6-methanobenzo[d]azocin-11-yl)(methyl)amino)-N-(4-(trifluoromethyl)phenyl)acetamide], the Emax (as a rule, the greatest response seen or fitted, relative to the assay's reference) worked out at 5.33 ± 1.45%. For the setting “bound given in uM”, the 50% effective concentration (EC50) (commonly the concentration that produces a half-maximal response) is greater than 20 µM.

Take `COc1ccc2c(c1)[C@]1(C)CCN(C)[C@H](C2)[C@@H]1N(C)C(=O)CN1CCNC(=O)C1` [Compound 44, N-((2R,6S,11R)-8-methoxy-3,6-dimethyl-1,2,3,4,5,6-hexahydro-2,6-methanobenzo[d]azocin-11-yl)-N-methyl-2-(3-oxopiperazin-1-yl)acetamide]: the Emax was 43 ± 2.52%. The concentration for a half-maximal effect (EC50) (bound given in uM) is greater than 20 µM.

With `CN1CC[C@@]2(C)c3cc(O)ccc3C[C@@H]1[C@@H]2N(C)CC1CCN(C(=O)C(C)(C)C)CC1` [Compound 52, 1-(4-((((2R,6S,11R)-8-hydroxy-3,6-dimethyl-1,2,3,4,5,6-hexahydro-2,6-methanobenzo[d]azocin-11-yl)(methyl)amino)methyl)piperidin-1-yl)-2,2-dimethylpropan-1-one], the half-maximal effective concentration (EC50) is 0.00122 ± 0.0002 µM and the Emax amounted to 31.3 ± 0.88%.

For the molecule `CN1CC[C@@]2(C)c3cc(O)ccc3C[C@@H]1[C@@H]2N(C)CC1CCN(S(C)(=O)=O)CC1` [Compound 54, (2R,6S,11R)-3,6-dimethyl-11-(methyl((1-(methylsulfonyl)piperidin-4-yl)methyl)amino)-1,2,3,4,5,6-hexahydro-2,6-methanobenzo[d]azocin-8-ol], the EC50 worked out at 0.00544 ± 0.00235 µM and the Emax was 74 ± 3.15%.

Take `CCS(=O)(=O)N1CCC(CN(C)[C@H]2[C@H]3Cc4ccc(O)cc4[C@]2(C)CCN3C)CC1` [Compound 56, (2R,6S,11R)-11-(((1-(ethylsulfonyl)piperidin-4-yl)methyl)(methyl)amino)-3,6-dimethyl-1,2,3,4,5,6-hexahydro-2,6-methanobenzo[d]azocin-8-ol]: the EC50 is 0.0967 ± 0.00987 µM and the Emax came to 62 ± 1.53%.

As for `CN1CC[C@@]2(C)c3cc(O)ccc3C[C@@H]1[C@@H]2N(C)CC1CCN(S(=O)(=O)C2CC2)CC1` [Compound 57, (2R,6S,11R)-11-(((1-(cyclopropylsulfonyl)piperidin-4-yl)methyl)(methyl)amino)-3,6-dimethyl-1,2,3,4,5,6-hexahydro-2,6-methanobenzo[d]azocin-8-ol], the EC50 came out at 0.0905 ± 0.0181 µM and the Emax came to 43 ± 1.53%.

In the case of `CN1CC[C@@]2(C)c3cc(O)ccc3C[C@@H]1[C@H]2N(CCc1ccc(F)cc1)CC(=O)O` [Compound 72, N-(4-fluorophenethyl)-N-((2R,6S,11S)-8-hydroxy-3,6-dimethyl-1,2,3,4,5,6-hexahydro-2,6-methanobenzo[d]azocin-11-yl)glycine], the concentration for a half-maximal effect (EC50) turned out to be 0.338 ± 0.0609 µM and the Emax was found to be 101 ± 2.91%.

For the molecule `CN1CC[C@@]2(C)c3cc(O)ccc3C[C@@H]1[C@@H]2N(CCc1ccc(F)cc1)CC(=O)O` [Compound 73, N-(4-fluorophenethyl)-N-((2R,6S,11R)-8-hydroxy-3,6-dimethyl-1,2,3,4,5,6-hexahydro-2,6-methanobenzo[d]azocin-11-yl)glycine], the EC50 came out at 0.0572 ± 0.0127 µM and the Emax amounted to 68.8 ± 1.77%.

On to `CN1CC[C@@]2(C)c3cc(O)ccc3C[C@@H]1[C@@H]2N(CCc1ccc(F)cc1)CC(N)=O` [Compound 74, 2-((4-fluorophenethyl)-((2R,6S,11R)-8-hydroxy-3,6-dimethyl-1,2,3,4,5,6-hexahydro-2,6-methanobenzo[d]azocin-11-yl)amino)acetamide], for which the 50% effective concentration (EC50) is 0.00112 ± 0.00017 µM and the Emax was 83.2 ± 3.47%.

For the molecule `CN1CC[C@@]2(C)c3cc(O)ccc3C[C@@H]1[C@H]2N(CCO)CCc1ccc(F)cc1` [Compound 77, (2R,6S,11S)-11-((4-fluorophenethyl)(2-hydroxyethyl)amino)-3,6-dimethyl-1,2,3,4,5,6-hexahydro-2,6-methanobenzo[d]azocin-8-ol], the EC50 stood at 0.00796 ± 0.00069 µM and the Emax came out at 87 ± 1.73%.

On to `CN1CC[C@@]2(C)c3cc(O)ccc3C[C@@H]1[C@@H]2N(C)C(=O)Nc1nc2ccc(F)cc2s1` [Compound 81, 3-(6-fluorobenzo[d]thiazol-2-yl)-1-((2R,6S,11R)-8-hydroxy-3,6-dimethyl-1,2,3,4,5,6-hexahydro-2,6-methanobenzo[d]azocin-11-yl)-1-methylurea], for which the Emax is -1%. Besides, the EC50 (bound given in uM) is greater than 20 µM.

On to `CN1CC[C@@]2(C)c3cc(O)ccc3C[C@@H]1[C@H]2N(C)C(=O)Nc1nc2cc(F)ccc2s1` [Compound 82, 3-(5-fluorobenzo[d]thiazol-2-yl)-1-((2R,6S,11S)-8-hydroxy-3,6-dimethyl-1,2,3,4,5,6-hexahydro-2,6-methanobenzo[d]azocin-11-yl)-1-methylurea], for which the Emax came out at 1%. Besides, under “bound given in uM”, the EC50 was greater than 20 µM.

`CCN(C(=O)Nc1ccc(C#N)cc1)[C@H]1[C@H]2Cc3ccc(O)cc3[C@]1(C)CCN2C` [Compound 91, 3-(4-cyanophenyl)-1-ethyl-1-((2R,6S,11R)-8-hydroxy-3,6-dimethyl-1,2,3,4,5,6-hexahydro-2,6-methanobenzo[d]azocin-11-yl)urea]: the EC50 worked out at 0.0463 ± 0.0041 µM and the Emax came to 75.3 ± 2.19%.

As to `CCCN(C(=O)Nc1ccc(C#N)cc1)[C@H]1[C@H]2Cc3ccc(O)cc3[C@]1(C)CCN2C` [Compound 92, 3-(4-cyanophenyl)-1-((2R,6S,11R)-8-hydroxy-3,6-dimethyl-1,2,3,4,5,6-hexahydro-2,6-methanobenzo[d]azocin-11-yl)-1-propylurea], the EC50 stood at 0.0964 ± 0.00352 µM and the Emax is 43.8 ± 1.03%.

With `CCN(C(=O)Nc1ccc(C#N)cc1)[C@@H]1[C@H]2Cc3ccc(O)cc3[C@]1(C)CCN2C` [Compound 93, 3-(4-cyanophenyl)-1-ethyl-1-((2R,6S,11 S)-8-hydroxy-3,6-dimethyl-1,2,3,4,5,6-hexahydro-2,6-methanobenzo[d]azocin-11-yl)urea], the EC50 worked out at 2.29 ± 0.404 µM and the Emax came to 32 ± 2.48%.

Turning to `CN1CC[C@@]2(C)c3cc(O)ccc3C[C@@H]1[C@@H]2N(C)CC1CCN(C(=O)NC(C)(C)C)CC1` [Compound 95, N-(tert-butyl)-4-((((2R,6S,11R)-8-hydroxy-3,6-dimethyl-1,2,3,4,5,6-hexahydro-2,6-methanobenzo[d]azocin-11-yl)(methyl)amino)methyl)piperidine-1-carboxamide], the EC50 was found to be 0.008 ± 0.00164 µM and the Emax is 17.7 ± 2.6%.

With `CCN(CCc1ccc(S(C)(=O)=O)cc1)[C@H]1[C@H]2Cc3ccc(O)cc3[C@]1(C)CCN2C` [Compound 98, (2R,6S,11R)-11-(ethyl(4-(methylsulfonyl)phenethyl)amino)-3,6-dimethyl-1,2,3,4,5,6-hexahydro-2,6-methanobenzo[d]azocin-8-ol], the EC50 amounted to 0.00064 ± 8.2e-05 µM and the Emax is 44.6 ± 0.6%.

In the case of `CN1CC[C@@]2(C)c3cc(O)ccc3C[C@@H]1[C@@H]2N(C)S(=O)(=O)Cc1ccccc1` [Compound 100, N-((2R,6S,11R)-8-hydroxy-3,6-dimethyl-1,2,3,4,5,6-hexahydro-2,6-methanobenzo[d]azocin-11-yl)-N-methyl-1-phenylmethane-sulfonamide], the EC50 came to 8.95 ± 2.04 µM and the Emax was 25 ± 1.53%.

In the case of `CN1CC[C@]2(C)c3cc(O)ccc3CC1[C@@H]2C(=O)N1CCCCC1` [Compound 106, ((6S,11R)-8-hydroxy-3,6-dimethyl-1,2,3,4,5,6-hexahydro-2,6-methanobenzo[d]azocin-11-yl)(piperidin-1-yl)methanone], the half-maximal effective concentration (EC50) amounted to 4.09 ± 0.334 µM and the Emax is 49 ± 1.73%.

On to `CN1CC[C@@]2(C)c3cc(O)ccc3C[C@@H]1[C@@H]2N(C)C(=O)Nc1nc2ccccc2[nH]1` [Compound 107, 3-(1H-benzo[d]imidazol-2-yl)-1-((2R,6S,11R)-8-hydroxy-3,6-dimethyl-1,2,3,4,5,6-hexahydro-2,6-methanobenzo[d]azocin-11-yl)-1-methylurea], for which the EC50 came to 0.00681 ± 0.00286 µM and the Emax worked out at 30.6 ± 1.51%.

Consider `CN1CC[C@@]2(C)c3cc(O)ccc3C[C@@H]1[C@@H]2NCc1ccccc1` [Compound 108, (2R,6S,11R)-11-(benzylamino)-3,6-dimethyl-1,2,3,4,5,6-hexahydro-2,6-methanobenzo[d]azocin-8-ol], for which the EC50 was found to be 11.7 ± 3.29 µM and the Emax is 17.1 ± 0.67%.

Take `CN1CC[C@@]2(C)c3cc(O)ccc3C[C@@H]1[C@H]2NCCCc1ccccc1` [Compound 109, (2R,6S,11S)-3,6-dimethyl-11-((3-phenylpropyl)amino)-1,2,3,4,5,6-hexahydro-2,6-methanobenzo-[d]azocin-8-ol]: the EC50 was determined as 0.649 ± 0.114 µM and the Emax came to 59.6 ± 2.5%.
